Data on one molecule can be found in patent US8247615B2, “Process of converting esterified xanthophylls from Capsicum to non-esterified xanthophylls in high yields and purities” (Kalamazoo Holdings, Inc., priority 2010, dated 2012).

Holding throughout (type): physicochemical
The nature of data set [1]: Stability of zeaxanthin in strongly basic (pH~14) aqueous methanolic potassium hydroxide at room temperature for 15 days. The procedure:
A reaction was carried out using the same reactants at the same proportions under the same conditions as reaction 19 in the table in Example 1. The procedure was identical for the first 24 hrs as described for reaction 19, but after refluxing for 24 hours, the mixture was allowed to settle for 1 hour at which time the upper hexane layer was decanted away. The remaining lower phase was washed twice by partitioning with water (30 mL for each wash). In each case the lower aqueous phase was discarded and after the second water wash, methanol (75 mL) was added to the remaining upper phase. The mixture was then distilled to remove the remaining hexanes and then refluxed for five hours. The mixture was then allowed to cool and was centrifuged and decanted to afford a supernatant and a crude precipitate. […] The purity was 17.4%. In a separate experiment, the mixture was allowed to cool after distilling away hexane (i.e. the five hour reflux described above was not carried out) and placed in a separating funnel for 15 days at which time the supernatant was removed by decanting to afford a crude precipitate. […] The supernatant and both wash solutions were analyzed for zeaxanthin content and >99% of the input zeaxanthin was accounted for, even after sitting in caustic solution for two weeks!

The nature of data set [2]: Solubility of zeaxanthin in solvents (saturated solution, residue weighed). The conditions noted are these: organic solvent or mixture, thermodynamic from solid. The source says: In a procedure identical to that described in Example 6 up until almost the final methanol desolventization step, rather than desolventizing the zeaxanthin methanol slurry, it was transferred along with 1.5 parts water (by volume) to a continuous extractor containing 1 part dichloromethane. The slurry was extracted with dichloromethane for four hours at which time the dichloromethane solution in the receiver was decanted away from the crystalline zeaxanthin that had formed. The crystals thereby obtained were 95.1% pure all-trans-zeaxanthin. The yield obtained was only 12.6%, but this experiment was only intended to produce purified zeaxanthin crystals. […] These crystals were homogenized in a mortar and pestle and added to separate vials containing various solvents until a saturated solution was obtained. In order to measure the solubility of zeaxanthin in different solvents (shown in Table 7 below), a 5.0 ml portion of the saturated supernatant was filtered, desolventized, and the residues weighed.

Data set [3] can be described thus: Stability of cis and trans isomers of zeaxanthin to the analytical sample preparation conditions. The conditions noted are these: analytical saponification in refrigerator, between 2 and 119 hours. The procedure: […]
Using the sample preparation conditions above, duplicate samples were prepared from the same oleoresin and each were split into seven separate vials and then stored in the refrigerator. A vial from each of the duplicate samples was removed at various times and analyzed by HPLC. […] We therefore conclude that our sample preparation and analysis conditions are not changing the amounts of the two isomers and that the amounts measured are the amounts in the samples prior to sample preparation and analysis.

The nature of data set [4]: Stability of zeaxanthin to saponification / reflux in caustic aqueous methanolic potassium hydroxide. The procedure:
In a procedure similar to that described in Example 2 after distilling away the hexane, the mixture was refluxed for a total of 40 hours and the content of zeaxanthin isomers was monitored by HPLC as a function of time. After refluxing for 40 hours the mixture was allowed to cool, then centrifuged to afford a supernatant and a crude precipitate. The crude precipitate was washed with methanol (4× by weight of crude precipitate) centrifuged and decanted to afford a wash solution and a refined precipitate. After desolventization, the powder was 59.0% pure zeaxanthin corresponding to a yield of 71%. The supernatant and the wash solution were both analyzed for zeaxanthin content and >99% of input zeaxanthin was accounted for, even after refluxing in caustic solution for 40 hours!

The nature of data set [5]: Stability of zeaxanthin on spray drying of the methanol slurry. As to conditions: spray dryer, inlet 120-160° C., outlet 60.5-87.2° C., nitrogen drying gas. Here is the method: In an experiment identical to the procedure described in Example 6, the zeaxanthin/methanol slurry was desolventized using a spray dryer. […] Inlet temperatures ranged from 120° C. to 160° C., outlet temp was 60.5° C. to 87.2° C., and rotary atomizer was set at 5.5 bar. Nitrogen was used as the drying gas.

≈ marks a conversion by molar mass, not a printed value. Entries after “also recorded” stand apart in the source; their conditions may differ. Some results are limits rather than exact numbers.

As to `CC1=C(/C=C/C(C)=C/C=C/C(C)=C/C=C/C=C(C)/C=C/C=C(C)/C=C/C2=C(C)CC(O)CC2(C)C)C(C)(C)CC(O)C1` (stereo not shown) [Zeaxanthin, zeaxanthin], the “input zeaxanthin accounted for” value is > 99% in data set [1] (after sitting in caustic solution for two weeks (15 days), precipitate, supernatant and wash solutions); > 99% in data set [4] (after refluxing in caustic solution for 40 hours, precipitate, supernatant and wash solution). Besides, the “degradation / loss of zeaxanthin” value in data set [1] (strongly basic solution (pH~14), room temperature, 15 days) is on record as “no degradation of zeaxanthin was observed; also recorded: nor was any significant loss of zeaxanthin observed; also recorded: no loss in zeaxanthin content”. For the same molecule, the solubility in data set [2] (solvent Acetone) was found to be 1630 µg/mL (≈ 2870 µM); in data set [2] (solvent DCM (dichloromethane)), 2960 µg/mL (≈ 5200 µM); in data set [2] (solvent EtOAc (ethyl acetate)) it was 1070 µg/mL (≈ 1880 µM); in data set [2] (solvent EtOH (ethanol)), 40 µg/mL (≈ 70.3 µM); in data set [2] (solvent Hexane), 68 µg/mL (≈ 120 µM); in data set [2] (solvent IPA (isopropyl alcohol)), 81 µg/mL (≈ 142 µM). In addition, the solubility in data set [2] (solvent Methanol) is 82 µg/mL (≈ 144 µM); in data set [2] (solvent MtBE (methyl tert-butyl ether)), 726 µg/mL (≈ 1280 µM); in data set [2] (solvent THF (tetrahydrofuran)), > 20400 µg/mL. Besides, in data set [3], the “change in amounts of cis and trans isomers” value is listed as “no change was observed”. The stability to degradation result in data set [4] (reflux in very basic aqueous methanolic solution) was “stable to degradation”. For the same molecule, in data set [4] (saponification by the method of the present invention, Capsicum starting material), the loss of zeaxanthin is given as < 1%. Also, in data set [5], the degradation of zeaxanthin result is “No degradation of zeaxanthin was observed”.
